pEC50: −log10 of the molar value. Each block holds one compound with its values, some of them ahead of it.
How the values were obtained:
Type in all cases: cell-based
Kv7.1 [1] = biological target: T1, Kv7.1 (Homo sapiens, UniProt P51787); assay: Whole-cell patch clamp of Kv7.1 currents (voltage steps) in transfected HEK293 cells; conditions: activator alone, HEK293
T1 construct: expressed in transfected cells; host or cells: HEK293
Description: (§1) The Tyrode’s solution contained (mM): 126 NaCl, 5.4 KCl, 1.8 CaCl2, 1 MgCl2, 0.33 NaH2PO4, 10 HEPES and 10 glucose, pH 7.4 (adjusted with NaOH). The Ca^2+-free Tyrode’s solution was prepared by removing CaCl2 from the Tyrode’s solution. The Kreb’s solution used for cell storage contained (mM): 70 glutamic acid, 30 KCl, 15 taurine, 0.5 MgCl2, 10 KH2PO4, 0.5 EGTA, 10 HEPES, 10 glucose, and 1% albumin, pH 7.4 (adjusted with KOH). The enzyme solution used for the rat cardiomyocyte isolation contained 0.08 g/L collagenase (type II) and 1.0 g/L BSA in Kreb’s solution. For action potential recording on cardiomyocyte, the pipette solution contained (mM): 100 potassium aspartate, 30 KCl, 1 MgCl2, 5 Mg-ATP, 5 EGTA, 5 HEPES, pH 7.3 (adjusted with KOH); the Tyrode’s solution was used as the standard bath solution. For whole-cell recording of IKs on myocytes, the pipette solution contained (mM): 125 potassium aspartate, 20 KCl, 1 MgCl2, 5 Mg-ATP, 10 EGTA, 5 HEPES, pH 7.3 (adjusted with KOH); the bath solution contained (mM): 132 NaCl, 4 KCl, 1.8 CaCl2, 1.2 MgCl2, 10 HEPES, 5 glucose, pH 7.4 (adjusted with NaOH). 3 μM nifedipine and 5 μM E-4031 were used to block the calcium current and IKr, respectively. For whole-cell recording on HEK-293 cells, the pipette solution contained (mM): 140 KCl, 2 MgCl2, 10 HEPES, 0.1 EGTA, 4 K2-ATP, pH 7.3 (adjusted with KOH); the bath solution contained (mM): 120 NaCl, 5 KCl, 1.5 CaCl2, 1 MgCl2, 10 HEPES, 10 glucose, pH 7.4 (adjusted with NaOH). For single-channel recording, the pipette solution (extracellular) contained (mM): 145 KCl, 10 HEPES, 10 glucose, pH 7.4 (adjusted with KOH); the bath solution (intracellular) contained (mM): 145 KCl, 1.2 MgCl2, 10 HEPES, 0.1 EGTA, pH 7.38 (adjusted with KOH).
(§2) Cell suspensions were transferred into a chamber on the stage of a Nikon Eclipse Ti inverted microscope (Tokyo, Japan). The whole-cell recordings were performed using isolated single ventricular myocytes. Patch electrodes were pulled from a horizontal microelectrode puller (P-1000, Sutter Instrument Co, USA) and fire polished to final tip resistance of 4.0–8.0 MΩ when filled with internal solutions. Signals were amplified with an Axopatch 200B amplifier (Axon Instruments, USA) and filtered at 1 kHz. The pCLAMP 9.0 software was used to generate current and voltage clamp protocols, acquire data, and analyse the current traces. The whole-cell series resistance was compensated to more than 80%. All of the experiments were performed at room temperature (22 ± 1 °C). The whole-cell IK1 was elicited by a ramp voltage protocol from −140 to + 40 mV in 1 s, or at a 0 mV holding potential to test potentials from −140 to + 40 mV in 10 mV increments. The IK1 was calculated as the difference between the peak inward current and the holding current level. The whole-cell Kv7.1/IKs were elicited from a −30 mV holding potential to test potentials from −80 to + 40 mV in 10 mV increments.
(§3) Human Kir2.1 cDNA, Kir2.3 cDNA, Kv7.1 cDNA and KCNE1 cDNA, was cloned in Human Embryonic Kidney 293 cells, respectively. In some cases, Kv7.1 cDNA and KCNE1 cDNA were simultaneously cloned in Human Embryonic Kidney 293 cells.

IKs = biological target: T2, IKs (Rattus norvegicus, UniProt Q9Z0N7); assay: Whole-cell recording of IKs on rat ventricular myocytes; conditions: forskolin alone
T2 construct: endogenous in cells; host or cells: isolated adult rat ventricular myocytes
Description: as §1, with “3 μM nifedipine and 5 μM E-4031 were used to block the calcium current and IKr, respectively. For whole-cell recording on HEK-293 cells, the pipette solution contained (mM): 140 KCl, 2 MgCl2, 10 HEPES, 0.1 EGTA, 4 K2-ATP, pH 7.3 (adjusted with KOH); the bath solution contained (mM): 120 NaCl, 5 KCl, 1.5 CaCl2, 1 MgCl2, 10 HEPES, 10 glucose, pH 7.4 (adjusted with NaOH). For single-channel recording, the pipette solution (extracellular) contained (mM): 145 KCl, 10 HEPES, 10 glucose, pH 7.4 (adjusted with KOH); the bath solution (intracellular) contained (mM): 145 KCl, 1.2 MgCl2, 10 HEPES, 0.1 EGTA, pH 7.38 (adjusted with KOH).” left out
Cell suspensions were transferred into a chamber on the stage of a Nikon Eclipse Ti inverted microscope (Tokyo, Japan). […] The IK1 was calculated as the difference between the peak inward current and the holding current level. […]

Kv7.1 [2] = biological target: T1, Kv7.1; assay: Single-channel inside-out patch clamp recording of Kv7.1; conditions: 293B applied after puerarin 100 μM
Description: as §1, with “3 μM nifedipine and 5 μM E-4031 were used to block the calcium current and IKr, respectively. For whole-cell recording on HEK-293 cells, the pipette solution contained (mM): 140 KCl, 2 MgCl2, 10 HEPES, 0.1 EGTA, 4 K2-ATP, pH 7.3 (adjusted with KOH); the bath solution contained (mM): 120 NaCl, 5 KCl, 1.5 CaCl2, 1 MgCl2, 10 HEPES, 10 glucose, pH 7.4 (adjusted with NaOH). For single-channel recording, the pipette solution (extracellular) contained (mM): 145 KCl, 10 HEPES, 10 glucose, pH 7.4 (adjusted with KOH); the bath solution (intracellular) contained (mM): 145 KCl, 1.2 MgCl2, 10 HEPES, 0.1 EGTA, pH 7.38 (adjusted with KOH).” left out
(§4) Single-channel activity was recorded at a series of holding levels ranging from 10 mV of 50 mV. […] Single-channel events were listed and analysed by pclampfit 9.0 (single-channel search-in-analyse function). […]

IKs channel = biological target: T3, IKs channel (Homo sapiens, UniProt P51787); assay: Single-channel inside-out patch clamp recording of IKs; conditions: 293B applied after puerarin 100 μM
T3 construct: expressed in transfected cells; host or cells: HEK293
Description: as §1, with “3 μM nifedipine and 5 μM E-4031 were used to block the calcium current and IKr, respectively. For whole-cell recording on HEK-293 cells, the pipette solution contained (mM): 140 KCl, 2 MgCl2, 10 HEPES, 0.1 EGTA, 4 K2-ATP, pH 7.3 (adjusted with KOH); the bath solution contained (mM): 120 NaCl, 5 KCl, 1.5 CaCl2, 1 MgCl2, 10 HEPES, 10 glucose, pH 7.4 (adjusted with NaOH). For single-channel recording, the pipette solution (extracellular) contained (mM): 145 KCl, 10 HEPES, 10 glucose, pH 7.4 (adjusted with KOH); the bath solution (intracellular) contained (mM): 145 KCl, 1.2 MgCl2, 10 HEPES, 0.1 EGTA, pH 7.38 (adjusted with KOH).” left out
as §4

[3] = biological target: T4, IKs channels (KCNQ and KCNE) (Homo sapiens, UniProt P51787); assay: Whole-cell patch clamp of IKs currents (Kv7.1 + KCNE1, voltage steps) in transfected HEK293 cells
T4 construct: expressed in transfected cells; host or cells: HEK293
Description: as §1, §2, §3

rat ventricular myocytes = assay: Action potential recording on isolated rat ventricular myocytes; conditions: isoproterenol 10 nM, comparing with control
Description: as §1
Single ventricular myocytes were isolated from adult rat hearts via enzymatic dissociation as previously described. Briefly, the rats were anesthetised with 25% chloral hydrate (0.1 g/100 g). Their hearts were excised rapidly and retrogradely perfused on a Langendorff apparatus with a Ca^2+-free Tyrode’s solution for 5 min before the perfusate was switched to an enzymatic solution for 10–20 min. The perfusate was finally changed to Kreb’s solution for 5 min. The perfusates were bubbled with 95% O2 + 5% CO2 and maintained at 37 °C. The ventricles w ere cut into small chunks and gently agitated in Kreb’s solution. The cells were filtered through nylon mesh (pore size 200 μm) and stored in Kreb’s solution at 4 °C.
Action potentials were elicited at 1 Hz by 2 ms current pulses applied using the patch pipette.
as §2

open probability of Kv7.1 channel (Kv7.1 [2]): further abolished
open probability of IKs channel (IKs channel): further abolished
Compound: CCS(=O)(=O)N(C)[C@H]1c2cc(C#N)ccc2OC(C)(C)[C@@H]1O [293B]

effect on Kv7.1 current (Kv7.1 [1]): significantly enhanced
Compound: CC(C)NCC(O)c1ccc(O)c(O)c1 (centres unmarked) [Isoproterenol]
effect on APD of rat ventricles (rat ventricular myocytes): significantly shortened

Further lines, the compound ahead of its results:

Compound: C=C[C@@]1(C)CC(=O)[C@]2(O)[C@@]3(C)[C@@H](O)CCC(C)(C)[C@@H]3[C@H](O)[C@H](OC(C)=O)[C@@]2(C)O1 [Forskolin]
effect on Kv7.1 current (Kv7.1 [1]): significantly enhanced
effect on IKs current in rat cardiac myocytes (IKs): significantly enhanced

Compound: O=C(O)[C@H]1O[C@@H](Oc2cc3oc(-c4ccccc4)cc(=O)c3c(O)c2O)[C@H](O)[C@@H](O)[C@@H]1O [Baicalin]
maximal increased effect upon IKs currents ([3]; HEK293): 57.32 ± 3.07%
saturation dosage, enhancement of IKs ([3]; HEK293): 1 mM
pEC50 ([3]; at the peak currents, non-linear Hill fit, read-out: EC50, enhancement of IKs currents): 3.86
Hill coefficient, enhancement of IKs ([3]; non-linear Hill fit): 0.993

Compound: 8-Bromoadenosine-3′, 5′-cyclic monophosphorothioate [8-Br-cAMP]
effect on Kv7.1 current (Kv7.1 [1]): significantly enhanced

From article PMC5071873, “The Effects of Puerarin on Rat Ventricular Myocytes and the Potential Mechanism” (Scientific Reports, 2016)
